Laboratory results taken from patent US20090118173A1, “TREATMENT AND PREVENTION OF INFLAMMATORY BOWEL DISEASES” (priority 2006, published 2009).

Tests used:
[1] = tested on: bacterially primed T-cells; assay: Cross reactivity of bacterial peptide primed T cells with corresponding mouse homologue peptides; type: cell-based, Balb/c mice; conditions: proliferation and cytokine production
From the text: To test cross-reactivity, i.e. the capacity of selected peptides to induce T cells cross-reactive with homologous self-proteins, the following method can be used (see also Examples):
Any sign of activation (see above) can be taken as an indication of cross-reactivity of the test (e.g. microbial) epitope with the self protein/peptide. Initial testing can be carried out with a synthetic peptide based on the sequence of the self protein/peptide, but final proof for cross-reactivity with the protein/peptide itself, either in isolated form or expressed on cells, is preferably obtained in T cell activation tests with (stressed) antigen presenting cells (over)expressing and presenting the self HSP-peptide, in order to exclude cryptic epitopes.
(§1) To define the epitopes more precisely, we divided the 13 peptides, based on the degree of sequence identity between bacterial and the homologous mouse Hsp70s, in three pools (pool A: non-conserved peptides, pool B: conserved peptides comprising at least about 80% amino acid identity to the mouse homologue, and pool C: highly conserved peptides comprising >86% amino acid identity to the mouse homologue, see below) and immunized 10-12 weeks old Balb/c mice twice with a 2 week interval (intraperitoneally and subcutaneously) with the peptide pools. 10 days after the second immunization primed spleen and draining lymph node cells were re-stimulated in vitro with all the 13 individual peptides after which we measured T-cell proliferation (tritium incorporation), IFNγ, IL10, IL4 and IL5 production (cytokine production).

[2] = tested on: primed spleen and draining lymph node cells; assay: T-cell proliferation (tritium incorporation) of peptide-pool primed spleen and draining lymph node cells re-stimulated in vitro with individual peptides; type: cell-based, Balb/c mice; conditions: mice immunized with peptide pools, in vitro re-stimulation with the individual peptide
From the text: as §1

[3] = tested on: primed spleen and draining lymph node cells; assay: Cytokine production (IFNγ, IL10, IL4, IL5) of peptide-pool primed spleen and draining lymph node cells re-stimulated in vitro; type: cell-based, Balb/c mice; conditions: mice immunized with peptide pools; in vitro re-stimulation with the individual peptide
From the text: as §1

[4] = tested on: human MHC class II molecules; conditions: human B cell line under stress (nutrient deprivation); peptide of the same sequence; cited from earlier work

| Sequence | Cross-reactivity of bacterially primed T-cells with mouse homologue peptide [1] | T-cell proliferation response [2] | IFN-gamma [3] | IL-10 [3] | elution from human MHC class II molecules [4] |
| --- | --- | --- | --- | --- | --- |
| DEVVAVGAALQAGVL (listed as Mycobacterium tuberculosis) [Peptide B1, mycobacterial hsp70 peptide, pool B (conserved)] | induced cross reactive T cell responses and Yes | increased | increased | No |  |
| KPFQSVIADTGISVS (listed as Mycobacterium tuberculosis) [Peptide A1, mycobacterial hsp70 peptide, pool A (not conserved)] | no | increased | increased | augmented |  |
| VLRIINEPTAAAIAY (listed as Mus musculus) [mC1b] |  |  |  |  | eluted from human MHC class II molecules |
| VLRIVNEPTAAALAY (listed as Mycobacterium tuberculosis) [Peptide C1] | induced cross reactive T cell responses and yes | increased | increased | augmented |  |
